Key:
MeWo cells [1] = assay: Migration assay (scratch), MeWo; type: cell-based, human; conditions: 1 μM, 48 h, with greater potency than SCH772984
Protocol: Migration assays. Cells were grown in medium containing 10% FBS in 6-well plates. The following day the cells were scratched with a sterile toothpick, washed with PBS, and incubated in medium containing 10% FBS and vehicle, BT2 or SCH772984 at 1 μM. At 0, 24 h and 48 h the cells were photographed under a 4× objective using an Olympus CKX41 microscope. To assess the effect of BT2 on melanoma cell migration, A375 and MeWo cells were incubated with 1 μM of BT2 or SCH772984, and A375 and MeWo migration into the denuded zone was quantified after 24 or 48 h, respectively.

MeWo cells [2] = assay: Invasion assay (Matrigel), MeWo; type: cell-based, human; conditions: 1 μM, 48 h, with greater potency than SCH772984
Protocol: Invasion assays. Cells were grown in medium containing 10% FBS in 24-well plates. The following day the cells were scratched with a sterile toothpick, washed with PBS, and overlayed with 90% Matrigel (cat. no. 354230, Corning) (200 μl/well) containing vehicle, BT2 or SCH772984 at 1 μM. The cells were immediately photographed under a 10× objective using an Olympus CKX41 microscope, incubated at 37° C. for 1 h, and medium (800 μl/well) containing 10% FBS with vehicle, BT2 or SCH772984 at 1 μM was added. After 24 or 48 h, the cells were again photographed under a 10× objective using the same microscope. To assess the effect of BT2 on melanoma cell migration, A375 and MeWo cells were incubated with 1 μM of BT2 or SCH772984, and A375 and MeWo migration into the denuded zone was quantified after 24 or 48 h, respectively.

MeWo cells [3] = assay: Apoptosis, flow cytometry with Annexin V-FITC, MeWo; type: cell-based, human; conditions: 1 μM, 24 h
Protocol: Flow cytometry with Annexin V-FITC. Cells were seeded into 6 well plates in normal culture medium containing 10% FBS. After culturing overnight, the cells were incubated in complete medium containing vehicle, BT2 or SCH772984 at 1 μM and left for 24 h. The culture medium was removed and the cells were washed with PBS. Accutase (Stem Cell Technologies, cat. no. 07920) was used to detach the cells. The cells were then washed and centrifuged at 300 g for 5 min and resuspended at 1×10^6 cells/ml in 500 μl of 1× binding buffer (Annexin V-FITC Apoptosis Staining/Detection Kit, Abcam, cat. no. ab14085). The cells were transferred to 12×75 mm tubes and annexin V-FITC/propidium iodide (PI) was added and incubated for 5 min at 22° C. protected from light. Stained cell suspensions were analyzed by flow cytometry using a BD LSRFortessa X20.
The morphology of A375 and MeWo cells exposed to 1 μM of BT2 or SCH772984 for 24 h was also assessed.

total ERK = assay: Immunohistochemistry of MDA-MB-435 tumors, total ERK; type: in vivo, mouse; conditions: SCID mice, 20 mg/kg i.t.
From the text: Immunohistochemical staining and analyses. Rabbit monoclonal anti-CD3 (cat. no. ab16669; mouse, rat and human reactive), rabbit monoclonal anti-PD-1 (cat. no. ab214421), rabbit monoclonal anti-CD68 (cat. no. ab125212) antibodies were obtained from Abcam, rabbit monoclonal anti-phospho-ERK (Thr^202/Tyr^204) (cat. no. CST4370), rabbit monoclonal total ERK (cat. no. CST4695), antibodies were obtained from Cell Signaling Technology. Rabbit polyclonal anti-PD-L1 (cat. no. PA5-20343) antibody was obtained from ThermoFisher.
Formalin fixed, paraffin embedded sections were prepared from tumors. Heat-induced epitope retrieval was applied to all deparaffinized sections (4 μm sections on Superfrost slides) with citrate buffer, pH 6.0 for 5 min at 110° C. Sections were blocked with Dual Endogenous Enzyme Block (DAKO, S2003) for 10 min and then with 2% skim milk for 20 min. Slides were incubated with primary antibody for 60 min at room temperature or overnight at 4° C. and then for 10 min with probe of MACH3 Rabbit AP-Polymer Detection solution (Biocare Medical, M3R533 G, H, L). […] Integrated optical density (IOD) or area of positive staining (red chromagen) was assessed using Image-Pro Plus software (Cybernetics, Bethesda, MD, USA). Positive staining was the average of quantitation in 4-8 fields of view under 20× or 40× objectives.

PD-1 = assay: Flow cytometry with anti-PD-1 antibodies, Jurkat T cells; type: cell-based, human; conditions: for inhibition of PD-1 levels: time course (FIG. 17C)
Protocol: Flow cytometry with anti-PD-1 antibodies. Jurkat T cells were grown in 6 well plates containing RPMI 1640 and 10% FBS. After 24 h, the cells were treated with various concentrations of BT2 or BT3 for 48 h. Alternatively, the cells were incubated with 3 μM BT2 for various times. After treatment, the cells were washed with PBS, and centrifuged at 300×g for 5 min, and resuspended at 5×10^6 cells/ml. The cells were then incubated with BV421 conjugated mouse anti-human CD279 (PD-1) (BD, cat. no. 562516) or BV421 conjugated mouse IgG1 (BD, cat. no. 562438) for 45 min at 22° C. Cells were then washed twice with 1 ml of Stain Buffer, centrifuged and pellets were resuspended in 0.5 ml Stain Buffer. Stained cell suspensions were analyzed by flow cytometry using a BD FACSCanto (II).
Jurkat T cells express PD-1 (Yi et al., 2023) and are widely used as model human T cells (e.g., Repas et al., 2022). […] BT2's effects were not only dose-dependent but time-dependent. BT2 (3 μM) inhibited PD-1 levels by 50% after 24 h and by 80% after 48 h (FIG. 17C).

With CCOC(=O)Nc1ccc2c(c1)C(=O)N(CC)c1ccccc1O2 [BT2, (10-ethyl-11-oxo-10,11-dihydro-dibenzo[b,f][1,4]oxazepin-2-yl)-carbamic acid ethyl ester] the “migration into the denuded zone” value (MeWo cells [1]) was “suppressed melanoma migration”, the “invasion into the denuded zone of Matrigel” value (MeWo cells [2]) was “suppressed” and the “apoptosis (Annexin V-FITC+ PI−)” value (MeWo cells [3]) was “increased apoptosis”. The “total ERK levels in the tumors (IHC)” value (total ERK) was “no effect on total ERK levels”, the “reduction of PD-1 expression” value (PD-1; 0.1 μM, 48 h (FIG. 17A)) was 50% and the “inhibition of PD-1 levels” value (PD-1; 3 μM, 24 h) was 50%. For the same molecule, the “reduction of PD-1 expression” value (PD-1; 3 μM, 48 h, dose response (FIG. 17A)) was 80% and the “inhibition of PD-1 levels” value (PD-1; 3 μM, 48 h) was 80%.

Source: US20250352555A1, “METHOD OF INCREASING IMMUNE CELL ACTIVATION AND/OR TREATING CANCER USING DIBENZOXAZEPINONES” (VASCULAR THERAPEUTICS PTY LTD, priority 2022, published 2025)
